# Results: patent US11981669B2, “1,7-naphthyridine derivative and preparation method and use therefor” (CSPC ZHONGQI PHARMACEUTICAL TECHNOLOGY (SHIJIAZHUANG) CO., …, priority 2018, dated 2024)
# pIC50: −log10 of the molar value.
# What was measured:
# PHD1 = PHD1 (Homo sapiens (Human), UniProt Q96KS0); assay: PHD enzyme assay (Eu-VBC TR-fluorescence); assay type: biochemical
# Method: (§1) VHL/elongin B/elongin C were constructed, expressed and purified, and VHL was labeled. PHD1, PHD2 and PHD3 were constructed, expressed and purified. VBC protein was labeled with DELFIA Eu-Labeling Kit. A NeutrAvidin 96-well plate was blocked after the addition of 200 μL Blocker Casein to each well, followed by incubation for 30 min. Each well was washed 3 times by adding 200 μL of washing buffer each time. A 200 nM HIF-1a 556-574 solution was prepared with washing buffer, and 100 μL of the solution was added to each well, followed by incubation for 60 min. Each well was washed 3 times by adding 200 μL of washing buffer each time. A 1 mM Biotin solution was prepared with Blocker Casein, and 100 μL of the solution was added to each well, followed by incubation for 30 min. Each well was washed 3 times by adding 200 μL of washing buffer each time. A 20× compound solution was prepared with PHD reaction buffer, with the final concentration of DMSO being 1%. PHD solutions were prepared with PHD reaction buffer, and the concentrations of PHD1, 2, and 3 solutions were 10 ng/μL, 5 ng/μL, and 15 ng/μL, respectively. 95 μL of the PHD solution was added to each compound well, followed by the addition of 5 μL of the compound solution, 95 μL of the PHD solution was added to each full active well, followed by the addition of 5 μL of the PHD reaction buffer; and 100 μL of the PHD reaction buffer was added to each blank well. After mixing homogeneously, the wells were incubated for 60 min. Each well was washed 3 times by adding 200 μL of washing buffer each time A 1 ng/μL Eu-VBC solution was prepared with Eu-VBC binding buffer, and 100 μL of the solution was added to each well, followed by incubation for 60 min. Each well was washed 6 times by adding 200 μL DELFIA Wash Concentrate each time. 100 μL DELFIA Enhancement Solution was added to each well. A microplate reader was used to read TR-Fluorescence at Ex340 and Em615. The flurescence of the sample wells was recorded as FLUsample, the flurescence of the full active wells was recorded as FLU100%, and the flurescence of the blank well was recorded as FLU0%.
# PHD3 = PHD3 (Homo sapiens (Human), UniProt Q9H6Z9); assay: PHD enzyme assay (Eu-VBC TR-fluorescence); assay type: biochemical
# PHD3, sequence (Q9H6Z9 whole entry): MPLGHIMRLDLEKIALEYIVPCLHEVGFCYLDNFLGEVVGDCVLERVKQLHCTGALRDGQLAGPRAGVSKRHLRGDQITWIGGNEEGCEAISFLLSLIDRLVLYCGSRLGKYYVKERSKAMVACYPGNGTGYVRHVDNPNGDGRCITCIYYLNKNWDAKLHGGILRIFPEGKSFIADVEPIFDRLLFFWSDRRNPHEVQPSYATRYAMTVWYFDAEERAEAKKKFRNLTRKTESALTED
# Method: as §1
# HIF-1α = assay: Expression of HIF-1α protein in Hep3B cells (western blot, grayscale analysis); assay type: cell-based, Human; settings: for fold induction at 30 µM: Homo sapiens, 2 h, compound at 30 μM, 10 μM and 3 μM, read-out: HIF-1α level of the compound of the present disclosure/HIF-1α level of blank control
# Method: A test compound was dissolved in dimethyl sulfoxide into a 100 mM stock solution, and then was diluted with 0.5% FBS-containing DMEM medium into 30 μM, 10 μM and 3 μM for later use. Human liver cancer cells Hep3B were seeded in a six-well plate at a density of 2.25*10^5 cells/well, 2 mL per well. After cultivation overnight, the cells were treated with compounds at different concentrations for 2 h. The proteins were extracted for western blot and further grayscale analysis.
# [1] = test system: Erythropoietin in liver cancer cells Hep3B; assay: Expression of erythropoietin in liver cancer cells Hep3B in vitro (EPO ELISA of supernatant); assay type: cell-based, Human
# Method: The cells were adherent cultured overnight, and after discarding the used medium. In the 96-well culture plate, the cells were washed once with 0.5% FBS-containing DMEM medium. […] 0.5% FBS-containing DMEM medium was used instead of the drug solution as the control well. After incubation in a 37° C., 5% CO2 incubator for 24 h, the supernatant was taken as a sample and frozen at −20° C. for later use. An Elisa kit (abeam) was used to detect EPO in the cell supernatant. A microplate reader was used to detect the OD value at 450/620 nm.
# reticulocytes = assay: Effect on reticulocytes of normal mice; assay type: in vivo, Balb/c mice; parameters: Reticulocytes (RETIC), average: unit not given here; settings: 10 mg/kg p.o., once; 72 h after administration
# Method: 72 Balb/c mice, male, were divided into 12 groups, 6 mice in each treatment group. In the positive drug control groups: the mice in the FG-4592 treatment groups were orally administered once, at two doses of 10 mg/kg and 50 mg/kg, and the mice in the rhEPO treatment group was intraperitoneaily injected once, at a dose of 100 IU/kg. The compounds of the present disclosure were all orally administered once at a dose of 10 mg/kg. 72 h after the administration, blood was collected from the orbit of all animals, and subjected to EDTA-K2 anticoagulation. Then reticulocytes (RETIC) were counted with an automatic blood cell analyzer.
# CYP3A4-M = CYP3A4-M (Homo sapiens (Human), UniProt P08684); assay: CYP enzyme inhibition assay; assay type: in vitro ADME
# CYP3A4-M, sequence (P08684 whole entry): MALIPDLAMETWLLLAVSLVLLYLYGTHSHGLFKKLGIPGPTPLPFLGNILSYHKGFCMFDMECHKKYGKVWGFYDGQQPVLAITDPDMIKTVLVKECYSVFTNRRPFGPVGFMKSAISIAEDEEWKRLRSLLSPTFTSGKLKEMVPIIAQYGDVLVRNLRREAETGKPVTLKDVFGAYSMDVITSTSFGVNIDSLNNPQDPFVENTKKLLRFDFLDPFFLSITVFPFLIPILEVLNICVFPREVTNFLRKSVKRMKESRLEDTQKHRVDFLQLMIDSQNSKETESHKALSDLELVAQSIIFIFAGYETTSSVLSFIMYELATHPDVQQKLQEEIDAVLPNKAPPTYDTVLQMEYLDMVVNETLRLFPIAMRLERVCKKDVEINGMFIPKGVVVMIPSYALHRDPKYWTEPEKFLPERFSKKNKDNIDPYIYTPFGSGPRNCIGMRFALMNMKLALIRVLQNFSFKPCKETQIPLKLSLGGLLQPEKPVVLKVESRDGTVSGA
# From the text: (§2) The compounds of the present disclosure were subjected to the CYP450 enzyme inhibition assay.
# CYP2C9 = CYP2C9 (Homo sapiens (Human), UniProt P11712); assay: CYP enzyme inhibition assay; assay type: in vitro ADME
# CYP2C9, sequence (P11712 whole entry): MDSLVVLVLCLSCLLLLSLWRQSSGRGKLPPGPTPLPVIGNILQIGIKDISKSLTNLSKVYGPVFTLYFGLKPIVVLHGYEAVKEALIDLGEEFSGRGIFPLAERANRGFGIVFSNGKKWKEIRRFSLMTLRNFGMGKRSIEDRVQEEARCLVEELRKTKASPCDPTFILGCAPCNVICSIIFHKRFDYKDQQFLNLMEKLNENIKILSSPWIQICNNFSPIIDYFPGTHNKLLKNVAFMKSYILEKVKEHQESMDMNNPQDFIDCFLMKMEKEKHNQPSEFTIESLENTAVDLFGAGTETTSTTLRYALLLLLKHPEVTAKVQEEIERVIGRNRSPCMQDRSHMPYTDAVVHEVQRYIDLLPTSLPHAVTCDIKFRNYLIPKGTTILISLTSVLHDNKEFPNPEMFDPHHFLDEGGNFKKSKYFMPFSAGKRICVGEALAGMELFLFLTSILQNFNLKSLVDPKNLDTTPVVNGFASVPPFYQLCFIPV
# From the text: as §2
# CYP2D6 = CYP2D6 (Homo sapiens (Human), UniProt P10635); assay: CYP enzyme inhibition assay; assay type: in vitro ADME
# CYP2D6, sequence (P10635 whole entry): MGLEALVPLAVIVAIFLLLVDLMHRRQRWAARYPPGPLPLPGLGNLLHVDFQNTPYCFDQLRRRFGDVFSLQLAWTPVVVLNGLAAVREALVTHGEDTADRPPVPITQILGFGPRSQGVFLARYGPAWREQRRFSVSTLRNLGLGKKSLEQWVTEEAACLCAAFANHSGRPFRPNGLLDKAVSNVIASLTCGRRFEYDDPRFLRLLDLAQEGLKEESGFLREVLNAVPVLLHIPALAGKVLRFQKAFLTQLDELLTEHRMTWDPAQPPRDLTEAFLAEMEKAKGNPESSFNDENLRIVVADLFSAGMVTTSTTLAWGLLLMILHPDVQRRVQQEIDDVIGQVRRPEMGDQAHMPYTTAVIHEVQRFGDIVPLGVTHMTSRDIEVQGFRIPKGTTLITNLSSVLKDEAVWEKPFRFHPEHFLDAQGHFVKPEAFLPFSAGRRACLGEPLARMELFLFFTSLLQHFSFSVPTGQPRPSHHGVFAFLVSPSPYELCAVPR
# From the text: as §2
# CYP2C19 = CYP2C19 (Homo sapiens (Human), UniProt P33261); assay: CYP enzyme inhibition assay; assay type: in vitro ADME
# CYP2C19, sequence (P33261 whole entry): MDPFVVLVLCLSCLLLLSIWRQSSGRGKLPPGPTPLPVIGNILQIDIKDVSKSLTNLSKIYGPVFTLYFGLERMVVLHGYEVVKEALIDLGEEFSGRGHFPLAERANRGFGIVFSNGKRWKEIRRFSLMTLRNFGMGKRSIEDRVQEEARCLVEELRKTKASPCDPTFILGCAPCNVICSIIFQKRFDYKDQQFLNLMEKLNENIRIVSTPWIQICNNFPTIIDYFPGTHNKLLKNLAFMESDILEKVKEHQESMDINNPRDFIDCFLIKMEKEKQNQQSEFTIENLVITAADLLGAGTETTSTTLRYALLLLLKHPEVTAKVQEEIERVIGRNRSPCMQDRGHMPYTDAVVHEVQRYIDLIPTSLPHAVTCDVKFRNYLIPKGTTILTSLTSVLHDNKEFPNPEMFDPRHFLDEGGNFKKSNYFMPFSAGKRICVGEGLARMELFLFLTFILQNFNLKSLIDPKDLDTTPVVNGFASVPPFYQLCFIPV
# From the text: as §2
# CYP1A2 = CYP1A2 (Homo sapiens (Human), UniProt P05177); assay type: in vitro ADME
# CYP1A2, sequence (P05177 whole entry): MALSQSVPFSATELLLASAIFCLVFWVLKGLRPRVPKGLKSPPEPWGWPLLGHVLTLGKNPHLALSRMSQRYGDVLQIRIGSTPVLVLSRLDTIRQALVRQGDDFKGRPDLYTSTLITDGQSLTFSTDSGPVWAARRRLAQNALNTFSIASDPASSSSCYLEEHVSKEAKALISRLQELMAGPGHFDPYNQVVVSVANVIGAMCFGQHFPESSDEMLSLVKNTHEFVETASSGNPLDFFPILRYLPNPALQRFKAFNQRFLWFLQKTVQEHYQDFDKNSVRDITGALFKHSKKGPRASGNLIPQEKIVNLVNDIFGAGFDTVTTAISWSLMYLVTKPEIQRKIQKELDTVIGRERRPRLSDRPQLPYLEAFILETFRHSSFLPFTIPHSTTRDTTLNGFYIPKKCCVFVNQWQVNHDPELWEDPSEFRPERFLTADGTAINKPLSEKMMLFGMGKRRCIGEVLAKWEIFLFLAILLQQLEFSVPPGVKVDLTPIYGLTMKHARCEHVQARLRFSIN
# From the text: as §2
# erythropoietin = assay: Expression of erythropoietin in vivo (plasma EPO ELISA after single oral dose); settings: once; for EPO OD value: plasma 6 hours after administration; for Promotion of expression of erythropoietin in vivo: at 10 mg/kg;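 for all read-outs here: male C57 mice given compound by mouth, five animals per treatment group, with EPO in plasma measured by ELISA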
# Method: (2) 30 c57 mice, male, were divided into 6 groups, 5 mice in each treatment group. […] 6 hours after the administration, blood was taken, and plasma was collected for EPO detection with an ELISA kit (R&D Co.).
# PHD1, sequence (Q96KS0 whole entry): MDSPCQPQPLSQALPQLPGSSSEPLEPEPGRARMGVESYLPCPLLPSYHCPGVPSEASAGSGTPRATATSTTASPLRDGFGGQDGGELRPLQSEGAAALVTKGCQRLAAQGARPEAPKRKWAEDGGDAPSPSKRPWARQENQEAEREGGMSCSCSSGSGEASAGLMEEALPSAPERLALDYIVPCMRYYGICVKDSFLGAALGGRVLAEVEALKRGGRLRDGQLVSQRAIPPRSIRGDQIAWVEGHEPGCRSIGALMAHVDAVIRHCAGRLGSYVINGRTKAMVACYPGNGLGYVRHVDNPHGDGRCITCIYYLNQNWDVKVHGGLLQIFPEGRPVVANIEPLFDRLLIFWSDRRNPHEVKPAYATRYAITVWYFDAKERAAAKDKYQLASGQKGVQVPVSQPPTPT
Effect on PHD1 compared with compounds of Comparative Examples 1-3 (PHD1),IC50 (PHD1),Effect on PHD3 compared with compounds of Comparative Examples 1-3 (PHD3),IC50 (PHD3),pIC50 (CYP3A4-M),pIC50 (CYP2C9),pIC50 (CYP2D6),pIC50 (CYP2C19),pIC50 (CYP1A2),Compound,HIF-1α protein expression compared with blank control (HIF-1α),Promoting effect on HIF-1α expression compared with FG4592 (HIF-1α),fold induction at 30 µM (HIF-1α),EPO-enhancing effect compared with positive control drug FG4592 [1],"Reticulocytes (RETIC), average (reticulocytes)",EPO OD value (erythropoietin; 10 mg/kg),EPO OD value (erythropoietin; 50 mg/kg),Promotion of expression of erythropoietin in vivo (erythropoietin)
better effect,46.9 nM,better effect,72.8 nM,< 4.30,< 4.30,< 4.30,< 4.30,< 4.30,"O=C(O)CNC(=O)c1nc(Cl)c2nc(Oc3ccccc3)ccc2c1O [Link-118, 2-(2-phenoxy-5-hydroxy-8-chloro-1,7-naphthyridine-6-formamido) Acetic Acid]",higher than that of the blank control,stronger than that of the positive control drug FG4592,> 10,higher than that of the positive control drug FG4592,8.62,D (D represents EPO OD value>3),D (D represents EPO OD value>3),significantly promote the expression of erythropoietin
better effect,40.3 nM,better effect,95.6 nM,< 4.30,< 4.30,< 4.30,< 4.30,< 4.30,"O=C(O)CNC(=O)c1nc(Br)c2nc(Oc3ccccc3)ccc2c1O [Link-121, 2-(2-phenoxy-5-hydroxy-8-bromo-1,7-naphthyridine-6-formamido) Acetic Acid]",higher than that of the blank control,,4.5 to 8.5,higher than that of the positive control drug FG4592,7.28,C (C represents 2<EPO OD value<3),D (D represents EPO OD value>3),significantly promote the expression of erythropoietin
